According to ChEMBL document CHEMBL5212743, “Selectivity Literature for EUbOPEN Chemogenomics Library wave 3” (2023):

Experiments:
[1] = test system: T1, Receptor-type tyrosine-protein kinase FLT3 (Homo sapiens), P36888 [D835Y]; experiment: Selectivity interaction (KinomeScan (DiscoverX)) EUB0000138c FLT3; conditions: at 100 nM
T1 sequence (whole entry): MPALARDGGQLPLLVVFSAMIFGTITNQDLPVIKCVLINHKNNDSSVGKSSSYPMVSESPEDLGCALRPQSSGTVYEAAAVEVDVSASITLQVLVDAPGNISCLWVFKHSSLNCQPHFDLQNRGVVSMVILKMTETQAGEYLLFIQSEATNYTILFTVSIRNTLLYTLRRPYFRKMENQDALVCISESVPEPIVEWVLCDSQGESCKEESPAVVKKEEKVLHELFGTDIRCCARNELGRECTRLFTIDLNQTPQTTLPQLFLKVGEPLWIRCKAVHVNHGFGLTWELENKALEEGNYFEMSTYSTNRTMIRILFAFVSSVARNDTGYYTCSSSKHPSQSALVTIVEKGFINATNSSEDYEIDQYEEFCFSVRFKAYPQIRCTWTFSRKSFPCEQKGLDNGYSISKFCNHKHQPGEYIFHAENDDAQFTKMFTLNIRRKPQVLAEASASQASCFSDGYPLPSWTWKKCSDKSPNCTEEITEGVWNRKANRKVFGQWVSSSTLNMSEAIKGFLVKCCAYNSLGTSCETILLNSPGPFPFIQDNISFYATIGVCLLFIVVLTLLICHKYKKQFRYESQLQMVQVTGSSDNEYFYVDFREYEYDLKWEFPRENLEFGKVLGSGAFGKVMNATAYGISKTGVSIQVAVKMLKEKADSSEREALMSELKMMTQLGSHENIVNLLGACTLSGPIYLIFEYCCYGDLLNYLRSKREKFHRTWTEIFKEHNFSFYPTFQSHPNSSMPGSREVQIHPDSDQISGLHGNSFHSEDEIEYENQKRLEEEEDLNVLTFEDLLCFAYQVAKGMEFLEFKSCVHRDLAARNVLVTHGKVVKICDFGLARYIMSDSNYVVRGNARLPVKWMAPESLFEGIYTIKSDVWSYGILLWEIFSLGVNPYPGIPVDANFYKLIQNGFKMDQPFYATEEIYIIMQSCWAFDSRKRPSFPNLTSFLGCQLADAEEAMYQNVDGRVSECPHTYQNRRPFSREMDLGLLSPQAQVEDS

[2] = target: Mitogen-activated protein kinase kinase kinase 19 (Homo sapiens, UniProt Q56UN5); experiment: Selectivity interaction (KinomeScan (DiscoverX, competition-binding assay)) EUB0000305b MAP3K19
[3] = target: Aurora kinase A (Homo sapiens, UniProt O14965)
[4] = target: 5'-AMP-activated protein kinase catalytic subunit alpha-1 (Homo sapiens, UniProt Q13131); experiment: Selectivity interaction (Kinase panel (University of Dundee)) EUB0000169b PRKAA1; conditions: at 10 µM
[5] = target: Serine/threonine-protein kinase Chk1 (Homo sapiens) (UniProt O14757); experiment: Selectivity interaction (Kinase panel (University of Dundee)) EUB0000169b CHEK1; conditions: at 10 µM
[6] = target: Casein kinase II subunit alpha (Homo sapiens, UniProt P68400); experiment: Selectivity interaction (Kinase panel (University of Dundee)) EUB0000169b CSNK2A1; conditions: at 10 µM
[7] = target: Tyrosine-protein kinase CSK (Homo sapiens) (UniProt P41240); experiment: Selectivity interaction (Kinase panel (University of Dundee)) EUB0000169b CSK; conditions: at 10 µM
[8] = target: Serine/threonine-protein kinase TAO1 (Homo sapiens) (UniProt Q7L7X3); experiment: Selectivity interaction (KinomeScan (DiscoverX)) EUB0000702a TAOK1; conditions: at 1 µM
[9] = target: Serine/threonine-protein kinase 26 (Homo sapiens) (UniProt Q9P289); experiment: Selectivity interaction (KinomeScan (DiscoverX)) EUB0000178b STK26; conditions: at 1 µM
[10] = target: Non-receptor tyrosine-protein kinase TYK2 (Homo sapiens, UniProt P29597); experiment: Selectivity interaction (Enzymatic assay) EUB0000178b TYK2
[11] = target: T2, Phosphatidylinositol 5-phosphate 4-kinase type-2 gamma (Homo sapiens) (UniProt Q8TBX8); experiment: Selectivity interaction (KinomeScan (DiscoverX)) EUB0000178b PIP4K2C; conditions: at 1 µM
T2 sequence (whole entry): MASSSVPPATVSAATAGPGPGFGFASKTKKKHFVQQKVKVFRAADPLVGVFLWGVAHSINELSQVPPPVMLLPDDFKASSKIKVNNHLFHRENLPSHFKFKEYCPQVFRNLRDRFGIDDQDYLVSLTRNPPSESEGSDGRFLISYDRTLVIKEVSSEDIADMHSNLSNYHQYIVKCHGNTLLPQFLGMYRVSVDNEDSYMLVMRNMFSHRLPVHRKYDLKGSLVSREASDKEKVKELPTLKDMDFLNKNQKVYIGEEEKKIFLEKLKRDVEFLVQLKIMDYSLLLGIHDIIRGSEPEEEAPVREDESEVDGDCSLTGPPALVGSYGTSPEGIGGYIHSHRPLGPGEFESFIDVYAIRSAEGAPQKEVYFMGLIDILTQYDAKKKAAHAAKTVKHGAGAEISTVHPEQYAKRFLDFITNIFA

[12] = target: STE20-like serine/threonine-protein kinase (Homo sapiens, UniProt Q9H2G2); experiment: Selectivity interaction (KinomeScan (DiscoverX)) EUB0000698a SLK; conditions: at 10 µM
Sequence of STE20-like serine/threonine-protein kinase (Q9H2G2 whole entry, looked up): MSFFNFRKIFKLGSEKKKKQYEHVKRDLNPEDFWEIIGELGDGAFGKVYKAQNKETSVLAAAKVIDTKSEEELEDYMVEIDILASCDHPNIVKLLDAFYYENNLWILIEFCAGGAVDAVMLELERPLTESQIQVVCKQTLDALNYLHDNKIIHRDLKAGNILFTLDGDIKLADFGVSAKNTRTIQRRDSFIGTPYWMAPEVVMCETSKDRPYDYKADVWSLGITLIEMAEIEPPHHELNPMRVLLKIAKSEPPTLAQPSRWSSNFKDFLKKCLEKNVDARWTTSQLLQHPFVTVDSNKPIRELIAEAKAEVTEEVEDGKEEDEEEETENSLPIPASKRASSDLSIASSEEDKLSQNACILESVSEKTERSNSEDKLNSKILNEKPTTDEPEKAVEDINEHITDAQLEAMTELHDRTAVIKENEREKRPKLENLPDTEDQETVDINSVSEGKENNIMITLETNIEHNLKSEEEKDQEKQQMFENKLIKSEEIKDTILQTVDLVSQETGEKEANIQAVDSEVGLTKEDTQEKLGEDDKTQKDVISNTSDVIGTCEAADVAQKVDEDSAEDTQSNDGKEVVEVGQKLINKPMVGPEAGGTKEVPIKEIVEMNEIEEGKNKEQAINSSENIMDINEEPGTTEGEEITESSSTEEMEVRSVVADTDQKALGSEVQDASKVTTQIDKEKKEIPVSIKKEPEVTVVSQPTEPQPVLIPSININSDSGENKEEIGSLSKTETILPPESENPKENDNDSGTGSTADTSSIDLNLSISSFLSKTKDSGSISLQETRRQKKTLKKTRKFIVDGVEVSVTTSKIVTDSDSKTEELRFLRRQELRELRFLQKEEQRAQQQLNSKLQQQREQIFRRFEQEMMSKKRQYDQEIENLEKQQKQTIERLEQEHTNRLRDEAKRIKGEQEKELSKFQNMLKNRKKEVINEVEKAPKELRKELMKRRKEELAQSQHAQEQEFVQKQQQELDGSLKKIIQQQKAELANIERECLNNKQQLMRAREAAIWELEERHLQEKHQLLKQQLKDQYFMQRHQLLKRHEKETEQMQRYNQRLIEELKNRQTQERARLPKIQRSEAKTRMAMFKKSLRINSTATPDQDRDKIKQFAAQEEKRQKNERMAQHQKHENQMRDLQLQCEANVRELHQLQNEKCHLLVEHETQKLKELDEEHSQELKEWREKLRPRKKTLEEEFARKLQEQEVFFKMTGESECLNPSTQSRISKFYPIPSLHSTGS

Sequence of Casein kinase II subunit alpha (P68400 whole entry, looked up): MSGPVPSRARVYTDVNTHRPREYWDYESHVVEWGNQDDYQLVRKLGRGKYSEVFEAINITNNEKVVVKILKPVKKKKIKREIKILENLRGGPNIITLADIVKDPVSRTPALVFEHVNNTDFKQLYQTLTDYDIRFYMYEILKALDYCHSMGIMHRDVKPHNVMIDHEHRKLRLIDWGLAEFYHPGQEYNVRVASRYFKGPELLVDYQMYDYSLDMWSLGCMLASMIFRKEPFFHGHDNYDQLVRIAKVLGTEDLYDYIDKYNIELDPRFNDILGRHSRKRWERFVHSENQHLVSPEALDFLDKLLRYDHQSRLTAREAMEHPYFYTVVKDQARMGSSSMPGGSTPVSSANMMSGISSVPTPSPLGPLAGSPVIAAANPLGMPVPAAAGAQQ
Sequence of Serine/threonine-protein kinase 26 (Homo sapiens) (Q9P289 2-416 limits assumed): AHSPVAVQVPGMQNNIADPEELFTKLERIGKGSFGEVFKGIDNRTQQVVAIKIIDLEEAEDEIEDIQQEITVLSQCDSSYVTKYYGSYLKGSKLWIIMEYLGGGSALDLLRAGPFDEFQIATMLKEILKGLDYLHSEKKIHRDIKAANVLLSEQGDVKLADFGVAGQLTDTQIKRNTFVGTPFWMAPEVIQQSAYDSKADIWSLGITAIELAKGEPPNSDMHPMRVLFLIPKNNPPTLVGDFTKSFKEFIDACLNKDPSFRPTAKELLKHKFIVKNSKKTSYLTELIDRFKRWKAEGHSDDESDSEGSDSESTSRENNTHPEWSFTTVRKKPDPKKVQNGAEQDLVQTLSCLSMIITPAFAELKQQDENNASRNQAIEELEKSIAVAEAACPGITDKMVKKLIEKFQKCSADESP
Sequence of Serine/threonine-protein kinase TAO1 (Homo sapiens) (Q7L7X3 whole entry): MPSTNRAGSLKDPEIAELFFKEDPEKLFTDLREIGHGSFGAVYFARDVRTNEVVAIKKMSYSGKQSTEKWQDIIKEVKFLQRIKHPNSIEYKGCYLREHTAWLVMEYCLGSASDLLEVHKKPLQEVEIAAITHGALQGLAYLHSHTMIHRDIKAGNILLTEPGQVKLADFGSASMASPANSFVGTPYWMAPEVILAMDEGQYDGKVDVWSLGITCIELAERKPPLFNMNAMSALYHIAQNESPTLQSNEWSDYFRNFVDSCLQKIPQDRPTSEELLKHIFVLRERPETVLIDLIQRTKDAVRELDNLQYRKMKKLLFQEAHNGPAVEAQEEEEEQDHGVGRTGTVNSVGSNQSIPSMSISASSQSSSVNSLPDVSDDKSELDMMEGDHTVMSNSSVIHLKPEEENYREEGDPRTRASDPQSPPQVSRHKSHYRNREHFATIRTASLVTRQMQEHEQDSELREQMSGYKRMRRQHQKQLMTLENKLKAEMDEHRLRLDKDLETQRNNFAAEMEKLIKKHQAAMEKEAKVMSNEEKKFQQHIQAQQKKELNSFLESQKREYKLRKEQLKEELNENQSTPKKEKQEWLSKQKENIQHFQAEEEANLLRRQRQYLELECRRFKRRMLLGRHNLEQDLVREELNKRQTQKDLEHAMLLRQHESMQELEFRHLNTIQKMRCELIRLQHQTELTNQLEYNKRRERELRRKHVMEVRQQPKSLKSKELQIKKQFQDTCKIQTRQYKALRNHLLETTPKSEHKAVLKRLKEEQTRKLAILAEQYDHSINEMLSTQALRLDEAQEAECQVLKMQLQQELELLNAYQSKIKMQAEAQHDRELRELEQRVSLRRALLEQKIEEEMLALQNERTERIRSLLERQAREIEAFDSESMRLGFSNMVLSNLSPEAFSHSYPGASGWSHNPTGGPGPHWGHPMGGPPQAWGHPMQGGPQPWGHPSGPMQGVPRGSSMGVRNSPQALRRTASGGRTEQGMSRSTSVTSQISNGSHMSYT
Sequence of 5'-AMP-activated protein kinase catalytic subunit alpha-1 (Q13131 whole entry, looked up): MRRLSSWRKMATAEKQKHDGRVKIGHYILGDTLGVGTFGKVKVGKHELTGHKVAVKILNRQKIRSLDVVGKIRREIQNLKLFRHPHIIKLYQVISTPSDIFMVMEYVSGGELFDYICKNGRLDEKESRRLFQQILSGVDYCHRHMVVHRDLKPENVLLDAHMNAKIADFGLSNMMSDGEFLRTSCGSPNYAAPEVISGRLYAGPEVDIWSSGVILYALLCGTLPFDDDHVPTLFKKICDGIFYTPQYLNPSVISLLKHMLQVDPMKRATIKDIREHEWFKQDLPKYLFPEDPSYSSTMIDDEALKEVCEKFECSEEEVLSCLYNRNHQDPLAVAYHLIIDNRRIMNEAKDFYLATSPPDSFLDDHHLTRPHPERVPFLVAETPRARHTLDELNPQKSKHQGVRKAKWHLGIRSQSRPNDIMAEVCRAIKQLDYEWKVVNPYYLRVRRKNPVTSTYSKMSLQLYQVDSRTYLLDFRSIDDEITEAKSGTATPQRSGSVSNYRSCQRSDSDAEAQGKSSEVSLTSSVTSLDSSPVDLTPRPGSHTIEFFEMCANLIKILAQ
Sequence of Non-receptor tyrosine-protein kinase TYK2 (P29597 whole entry): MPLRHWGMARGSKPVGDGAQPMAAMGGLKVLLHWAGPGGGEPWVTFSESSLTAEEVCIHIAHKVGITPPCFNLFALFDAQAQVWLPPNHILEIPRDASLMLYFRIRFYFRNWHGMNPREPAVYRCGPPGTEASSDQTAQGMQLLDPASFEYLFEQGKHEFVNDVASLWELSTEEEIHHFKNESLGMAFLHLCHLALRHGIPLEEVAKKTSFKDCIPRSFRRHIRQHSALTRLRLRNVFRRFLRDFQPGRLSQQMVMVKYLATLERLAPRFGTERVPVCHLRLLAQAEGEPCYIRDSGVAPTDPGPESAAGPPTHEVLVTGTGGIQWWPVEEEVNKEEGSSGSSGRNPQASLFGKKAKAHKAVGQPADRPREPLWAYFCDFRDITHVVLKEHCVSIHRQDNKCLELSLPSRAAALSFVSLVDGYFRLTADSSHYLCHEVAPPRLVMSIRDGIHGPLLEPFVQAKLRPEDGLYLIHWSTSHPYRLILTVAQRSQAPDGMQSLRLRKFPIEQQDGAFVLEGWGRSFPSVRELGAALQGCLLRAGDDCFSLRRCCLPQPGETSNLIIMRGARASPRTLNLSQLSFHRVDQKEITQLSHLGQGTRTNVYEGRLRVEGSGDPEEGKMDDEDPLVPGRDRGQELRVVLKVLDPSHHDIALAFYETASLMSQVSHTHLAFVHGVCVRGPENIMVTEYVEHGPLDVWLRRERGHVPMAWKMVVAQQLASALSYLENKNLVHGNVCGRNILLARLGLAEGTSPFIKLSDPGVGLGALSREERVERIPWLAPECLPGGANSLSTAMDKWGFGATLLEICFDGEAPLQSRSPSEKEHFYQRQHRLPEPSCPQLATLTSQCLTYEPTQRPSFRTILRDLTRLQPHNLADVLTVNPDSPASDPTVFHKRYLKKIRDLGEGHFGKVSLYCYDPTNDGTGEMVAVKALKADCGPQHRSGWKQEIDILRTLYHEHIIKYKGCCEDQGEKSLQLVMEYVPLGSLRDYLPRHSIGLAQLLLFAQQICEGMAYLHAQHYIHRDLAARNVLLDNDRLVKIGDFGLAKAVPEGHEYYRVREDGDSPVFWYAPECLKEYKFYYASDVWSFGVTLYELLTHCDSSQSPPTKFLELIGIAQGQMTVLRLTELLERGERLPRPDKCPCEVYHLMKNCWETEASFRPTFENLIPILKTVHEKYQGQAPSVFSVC

With `CNC(=O)c1ccc(Nc2ncc(C(F)(F)F)c(NCc3nccnc3N(C)S(C)(=O)=O)n2)cc1` [DEFACTINIB] the % of control [1] was 5.9%.

In the case of `C[C@H](c1ccnc(Nc2nc3ccc(-c4cc(N(C)C)ncn4)cc3[nH]2)c1)N1CCN(C(=O)CC(F)(F)F)CC1` [BAY-985], the Kd [2] is reported as 9.6 nM.

Compound `CCOc1cn(-c2ccc(F)cc2C)nc1C(=O)Nc1ccc(Oc2ccnc3cc(OC)c(OC)cc23)c(F)c1` has an IC50 [3] of 36 nM.

`CC[C@@H]1C(=O)N(C)c2cnc(Nc3ccc(C(=O)NC4CCN(C)CC4)cc3OC)nc2N1C1CCCC1` showed a % of control [4] of 89%, a % of control [5] of 91% and a % of control [6] of 103%. For the same compound, the % of control [7] was 99%.

Work on `CN(c1ccnc(CNc2nc(Nc3ccc4c(c3)CC(=O)N4)ncc2C(F)(F)F)n1)S(C)(=O)=O` [PF-00911705] yielded a % of control [8] of 3.7%.

`CN1C(=O)c2sccc2N(C)c2nc(Nc3ccc(S(N)(=O)=O)cc3)ncc21` was tested, and the % of control [9] was 0.6%, the IC50 [10] was 254 nM and the % of control [11] was 8%.

`COc1cc2ncn(-c3cc(OCc4ccccc4C(F)(F)F)c(C(N)=O)s3)c2cc1OC` [GW843682X] gave a % of control [12] of 0.3%.
